Reference: patent publication US20100286215A1, “BIS-AROMATIC COMPOUNDS USEFUL IN THE TREATMENT OF INFLAMMATION” (BIS-AROMATIC COMPOUNDS USEFUL IN THE TREATMENT OF …, priority 2007, published 2010)

Molecular target: T1, Recombinant human LTC4 synthase (Homo sapiens, UniProt Q16873)
T1 construct: made in house; host or cells: Pichia pastoris ('Piccia pastoralis' [sic])
T1 sequence (Q16873 1-150): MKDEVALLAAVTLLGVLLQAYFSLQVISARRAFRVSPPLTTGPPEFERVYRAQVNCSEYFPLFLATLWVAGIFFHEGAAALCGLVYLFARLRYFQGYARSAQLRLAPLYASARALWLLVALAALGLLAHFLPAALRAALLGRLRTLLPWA
Experiment: LTC4 synthase assay (conversion of LTA4 methyl ester to LTC4 methyl ester, HPLC)
Format: biochemical
Settings: for inhibition at 10 µM: inhibitor concentration 10 μM, read-out: Percantage Inhibition at 10 μM (unless specified otherwise)
Experimental: In the assay LTC4 synthase catalyses the reaction where the substrate LTA4 methyl ester is converted to LTC4 methyl ester. Recombinant human LTC4 synthase is expressed in Piccia pastoralis and the purified enzyme is dissolved in 25 mM Tris-buffer pH 7.8 and stored at −20° C. The assay is performed in phosphate buffered saline (PBS) pH 7.4, supplemented with 5 mM glutathione (GSH). The reaction is terminated by addition of acetonitrile/MeOH/acetic acid (50/50/1). The assay is performed at rt in 96-well plates. Analysis of the formed LTC4 methyl ester is performed with reversed phase HPLC (Waters 2795 utilizing an Onyx Monolithic C18 column). The mobile phase consists of acetonitrile/MeOH/H2O (32.5/30/37.5) with 1% acetic acid pH adjusted with NH3 to pH 5.6, and absorbance measured at 280 nm with a Waters 2487 UV-detector.
The following is added chronologically to each well: • 1. 50 μl assay buffer, PBS with 5 mM GSH. • 2. 0.5 μl inhibitor in DMSO. • 3. 2 μl LTC4 synthase in PBS. The total protein concentration in this solution is 0.025 mg/ml. Incubation of the plate at room temperature for 10 minutes. • 4. 0.5 μl LTA4 methyl ester. Incubation of the plate at rt for 1 min. • 5. 50 μl stop solution. 80 μl of the incubation mixture is analysed with HPLC.

SMILES | inhibition at 10 µM [%] | IC50 [nM]
O=C(Nc1ccc(C(=O)c2ccc(Oc3ccc(F)c(F)c3)c(C(=O)O)c2)cc1)c1cccc(Cl)c1 [8:4, 5-[4-(3-Chloro-benzoylamino)-benzoyl]-2-(3,4-difluoro-phenoxy)-benzoic acid] | 88 | 
O=C(c1ccc(Nc2ccc(F)c(F)c2)c(C(=O)O)c1)c1ccc(Nc2ccc(F)c(F)c2)c(C(=O)O)c1 [Example 1, 2-(3,4-difluorophenylamino)-5-((4-(3,4-difluorophenylamino)-3-carboxyphenylcarbonyl))benzoic acid] | 93 | 
O=C(Nc1ccc(C(=O)c2ccc(NC(=O)c3cccc(Cl)c3O)c(C(=O)O)c2)cc1)c1cccc(Cl)c1 [7:7, 5-[4-(3-Chloro-benzoylamino)-benzoyl]-2-(3-chloro-2-hydroxy-benzoylamino)-benzoic acid] | 82 | 
O=C(c1ccc(NS(=O)(=O)c2ccc(Cl)cc2)cc1)c1ccc(NC(=O)c2cccc(Cl)c2Cl)c(C(=O)O)c1 [7:10, 5-[4-(4-Chloro-benzenesulfonylamino)-benzoyl]-2-(2,3-dichloro-benzoylamino)-benzoic acid] | 99 | 
CN(c1ccc(Cl)cc1)c1ccc(C(=O)c2ccc(Oc3cccc(C(F)(F)F)c3F)c(C(=O)O)c2)cc1 [6:7, 5-{4-[(4-Chloro-phenyl)-methyl-amino]-benzoyl}-2-(2-fluoro-3-trifluoromethyl-phenoxy)-benzoic acid] | 96 | 
O=C(c1ccc(Nc2ccc(Cl)cc2)cc1)c1ccc(Oc2ccc(F)c(F)c2)c(C(=O)O)c1 [8:3, 5-[4-(4-Chloro-phenylamino)-benzoyl]-2-(3,4-difluoro-phenoxy)-benzoic acid] | 100 | 
O=C(Nc1ccc(C(=O)c2ccc(Nc3ccc(F)c(F)c3)c(C(=O)O)c2)cc1)Nc1cccc(Cl)c1 [5:1, 5-{4-[3-(3-Chloro-phenyl)-ureido]-benzoyl}-2-(3,4-difluoro-phenylamino)-benzoic acid] | 95 | 
CN(c1ccc(Cl)cc1)c1ccc(C(=O)c2ccc(Nc3ccc(C(F)(F)F)cc3)c(-c3nnn[nH]3)c2)cc1 [10:3, {4-[(4-Chloro-phenyl)-methyl-amino]-phenyl}-[3-(1H-tetrazol-5-yl)-4-(4-trifluoromethyl-phenylamino)-phenyl]-methanone] | 71 | 
O=C(Nc1ccc(C(=O)c2ccc(NC(=O)c3cccc4ccsc34)c(C(=O)O)c2)cc1)c1cccc(Cl)c1 [7:5, 2-[(Benzo[b]thiophene-7-carbonyl)-amino]-5-[4-(3-chloro-benzoylamino)-benzoyl]-benzoic acid] | 100 | 
O=C(c1ccc(Nc2ccc(F)c(F)c2)cc1)c1ccc(Nc2ccc(F)c(F)c2)c(C(=O)O)c1 [5:3, 2-(3,4-Difluoro-phenylamino)-5-[4-(3,4-difluoro-phenylamino)-benzoyl]-benzoic acid] | 84 | 
CCCCOc1ccc(S(=O)(=O)Nc2ccc(C(=O)c3ccc(Nc4ccc(F)c(F)c4)c(C(=O)O)c3)cc2)cc1 [Example 14, 5-(4-(4-butoxyphenylsulfonamido)benzoyl)-2-(3,4-difluorophenylamino)benzoic acid] | 100 | 
O=C(Nc1ccc(C(=O)c2ccc(Nc3ccc(F)c(F)c3)c(C(=O)O)c2)cc1)c1cccc(Cl)c1 [5:11, 5-[4-(3-Chloro-benzoylamino)-benzoyl]-2-(3,4-difluoro-phenylamino)-benzoic acid] | 87 | 
CC(C)Oc1ccc(Nc2ccc(C(=O)c3ccc(Nc4ccc(OC(C)C)cc4)c(C(=O)O)c3)cc2C(=O)O)cc1 [Example 2, 2-(4-isopropoxyphenylamino)-5-(4-(4-isopropoxyphenylamino)-3-carboxyphenylcarbonyl)benzoic acid] | 99 | 258
